The subject of the experiment is human immortalized podocytes inducibly expressing APOL1 G2. Put plainly: APOL1 G2 podocyte cell rescue assay (Example B4). It is filed as cell-based. The following applies: Homo sapiens, differentiated human podocytes, doxycycline-induced APOL1 G2, CellTiter-Glo; geometric mean of at least 2 runs; † = single run. Here is the method: APOL1 G2 human immortalized podocyte viability assay for measurement of cytotoxicity reversal by compound (APOL1 G2 podocyte cell rescue assay).
Cell Handling. The hTERT-immortalized kidney podocyte cell line was procured from the laboratory of Dr. Moin Saleem at the University of Bristol, UK (Nephrology 17 (2012) 525-531; doi:10.1111/j.1440-1797.2012.01619.x; herein incorporated by reference in its entirety). Parental and engineered cell lines were cultured in RPMI 1640 media (Gibco, 11875093) with 10% Tet System Approved FBS (Takara, 631101). The engineered cell line was maintained under selection (2.5 μg/mL puromycin). Cell lines were maintained and engineered at 33° C. Cell cultures were transferred to 37° C. for 10 to 14 days to initiate differentiation (Nephrology 17 (2012) 525-531; doi:10.1111/j.1440-1797.2012.01619.x; herein incorporated by reference in its entirety). During this time, media was refreshed every 3 days. After differentiation, cells engineered to inducibly express APOL1 G2 were used in the podocyte cell rescue assay.
Cell Line Engineering. The APOL1 G2 coding sequence was cloned into the pLVX-TetOne-Puro vector and verified by sequencing (Genscript Biotech). This construct was designed to have a C-terminal HiBiT tag. Lentiviral packaging of the vector was conducted using the Lenti-X Packaging Single Shots (VSVG) system according to manufacturer instructions (Takara Bio, 631275). A stable cell line was generated by transfecting the parental podocyte cell line with the concentrated virus in media with 5 μg/mL polybrene (Sigma, TR-1003-G). Media was changed the following day. 72 hours post transfection, 2.5 μg/mL puromycin (Gibco, A1113803) was added to the cells and cells were maintained in selection media thereafter. This APOL1 G2 stable cellular pool was subjected to a stringent limiting dilution to generate a pure stable clone (Podocyte/pLVX-TetOne APOL1 G2/clone D10) capable of inducible expression of APOL1 G2.
Assay Setup. T175 flasks containing differentiated podocytes engineered to inducibly express APOL1 G2 (Podocyte/pLVX-TetOne APOL1 G2/clone D10) were washed once with 15 mL of DPBS (Thermo Fisher, 14190-144). These flasks were each trypsinized with 3 mL of prewarmed TrypLE Express (Gibco, 12605-010) and incubated at 37° C. with 5% CO2 until cells detached and neutralized with 7 mL of prewarmed assay media (RPMI 1640 media with 10% Tet System Approved FBS, no selection agent). Cells were pooled and the resulting suspension was gently mixed. The cell suspension was counted using a Countess Cell Counting Chamber (Invitrogen) and the cell concentration was adjusted to 240,000 cells/mL using assay media. Next, 25 μL of a 480 ng/mL working stock of doxycycline diluted in assay media was added to an assay ready plate. All experiments were performed in 384-well, white, solid bottom, tissue culture treated plates (Greiner, 781080). The assay ready compound plates were generated with duplicate 8-point compound dilution series that consisted of 3-fold stepwise dilutions (0.4% DMSO final). The plates were centrifuged at 1000 rpm for 1 minute. 25 μL of diluted cell suspension (final cell density=6,000 cells/well) was added to each well. The plates were centrifuged again at 1000 rpm for 1 minute and then incubated in a humidified incubator (37° C. with 5% CO2). After 95 hours, the assay plates were removed from the incubator and allowed to equilibrate to room temperature for 1 hour. CellTiter-Glo® reagent (Promega, G7570) was prepared according to the manufacturer's instructions. 25 μL of CellTiter-Glo® reagent was added to each well. Assay plates were sealed with foil and mixed for 5 minutes on an orbital shaker (500 rpm) to induce cell lysis. Plates were centrifuged at 1000 rpm for 1 minute. 10 minutes after CellTiter-Glo® reagent addition, an Envision plate reader (Perkin Elmer) was used to measure the luminescent signal of each assay plate. Collaborative Drug Discovery software was utilized for graphing data. […]
On the technique in general: In ATP-based viability assays light output follows the ATP content of the culture.

As a reminder, the EC50 is the concentration giving half of the maximal effect. Read a high EC50 as weaker potency. With `CN(c1c(F)cc(OCCN2CCC3(CC2)C(=O)Nc2ccc(Cl)cc23)cc1F)S(C)(=O)=O` [Compound 127, N-[4-(2-{5-chloro-2-oxo-1,2-dihydrospiro[indole-3,4′-piperidin]-1′-yl}ethoxy)-2,6-difluorophenyl]-N-methylmethanesulfonamide], a half-maximal response (EC50) required 5.39 nM.
